Reference: patent US11884675B2, “Heterocyclic compounds as triggering receptor expressed on myeloid cells 2 agonists and methods of use” (AMGEN INC., priority 2020, dated 2024)

Each compound was assayed against hTREM2 (Homo sapiens, UniProt Q9NZC2) (assay: TREM2 activity by cellular Syk phosphorylation (AlphaScreen/AlphaLISA) in TREM2/DAP12-HEK cells, used for Examples 1-305). Details: HEK293 Cells.
Format: cell-based
Set-up: expressed in transfected cells
From the text: In vitro Measurement of Triggering Receptor Expressed on Myeloid Cells 2 activity using cellular phosphorylation of Spleen Tyrosine Kinase (“Syk”) Assays used for Examples 1-305
Pharmacological measurements of TREM2 signaling through DAP12 were made with TREM2 and DAP12 overexpressing HEK293 cells stable cell lines that had been single-cell cloned (“TREM2/DAP12-HEK”). The readout of the TREM2 signaling utilized Perkin Elmer AlphaScreen/AlphaLISA technology monitoring the phosphorylation levels of the Syk kinase. TREM2/DAP12-HEK cell lines were cultured in DMEM-F12 (Corning 10-092-CM) supplemented with 1X Penicillin/Streptomycin (Corning 30-002-CI), 1X GlutaMAX (Gibco 35050-061), and 10% Fetal Bovine Serum (Life Technologies 10099) referred to as “HEK Culture Medium”. Suspensions of TREM2/DAP12-HEK cells were prepared in HEK Culture Medium and dispensed into 384-well poly-D-lysine coated microplates (Corning 354661) at a density of 20,000 cells/well using a Multidrop Combi peristaltic microplate dispenser (Thermo), 25 μL volume of cell suspension/well. Plates containing cells were then incubated for 20 hours in a humidified cell culture incubator at 37° C. with 5% CO2 (Thermo). After incubation, culture medium was removed from all wells of each microplate and replaced with 20 μL of “Assay Buffer” comprised of DMEM-F12 (Corning 10-092-CM) supplemented with 1X Penicillin/Streptomycin (Corning 30-002-CI) and 0.1% Pluronic F-68 Polyol (MP Biomedical 092750049) using a Bravo 384-well pipette-based liquid handling system (Agilent). Assay Buffer contained diluted test articles (in 1% final DMSO concentration for compounds) or 100 nM anti-human/mouse TREM2 antibody (R&D Systems MAB17291) as a positive control, or 100 nM or rat IgG2B isotype Ab as a negative control (R&D Systems MAB0061). The plates were incubated with test articles and controls for 45 minutes at room temperature and then the medium was aspirated/removed from each well of the plates. A Multidrop Combi peristaltic liquid handler (Thermo) was used to dispense 15 μL/well of “Cell Lysis Immunoassay Buffer”. The Cell Lysis Immunoassay Buffer contained M-PER Mammalian Protein Extraction Reagent (Pierce/ThermoFisher 78505), 1X Halt Phosphatase Inhibitor Cocktail (ThermoFisher #78427), 0.1875 nM anti-phospho-Syk (Tyr525/526) (C87C1) rabbit mAb (Cell Signaling Technologies catalog #2710), and 1.5 nM biotinylated Mouse anti-human Syk (4D10) antibody (BD Biosciences, catalog #624008). Plates were incubated for 1 hour at room temperature after the addition of the Cell Lysis Immunoassay Buffer. The Multidrop Combi liquid handler was used to dispense 15 μL of AlphaScreen Acceptor Bead Solution containing 7.5 μg/mL anti-rabbit IgG (Fc specific) AlphaLISA Acceptor Beads (Perkin Elmer AL104R) in 1X Immunoassay buffer (Perkin Elmer AL000F) to each well of the microplates. The plates were incubated for 2 hours at room temperature. Following the incubation with the AlphaLISA Acceptor Bead Solution, a Multidrop Combi liquid handler (Thermo) was used to dispense 15 μL of AlphaScreen Donor Bead Solution containing 30 μg/mL of AlphaScreen Streptavidin Donor beads (Perkin Elmer 6760002B) in 1X Immunoassay buffer (Perkin Elmer AL000F) to each well of the microplates. Microplates were incubated for 2 hours protected from light sources as the AlphaScreen reagents are light sensitive. Once the final incubation was completed, an AlphaScreen signal was acquired from the donor and acceptor beads using an Envision high throughput multi-modal microplate reader (Perkin Elmer) calibrated to the plate type with the AlphaScreen mirror and filter-set in 384-well mode, 680 nanometer excitation wavelength. The total measurement time per well was 550 milliseconds with a 180 millisecond excitation time. […]

Sequence of hTREM2 (Q9NZC2 19-230): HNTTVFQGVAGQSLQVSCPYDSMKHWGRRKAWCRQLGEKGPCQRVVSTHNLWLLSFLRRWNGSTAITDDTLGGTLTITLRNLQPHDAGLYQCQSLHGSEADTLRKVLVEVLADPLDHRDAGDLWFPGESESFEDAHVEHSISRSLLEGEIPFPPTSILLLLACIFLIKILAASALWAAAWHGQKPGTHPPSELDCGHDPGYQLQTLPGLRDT
Sequence of hTREM2 (O43914 22-113 partner): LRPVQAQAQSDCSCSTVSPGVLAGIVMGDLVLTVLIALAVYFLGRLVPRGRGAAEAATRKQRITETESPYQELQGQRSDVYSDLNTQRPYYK

SMILES	EC50 [nM]	hTREM2 Emax
Cc1cc([C@H]2CN(c3cc4nc(C)cnc4c(-c4ccc(Cl)cc4F)n3)CCO2)ccn1 [Example 77, 5-(4-chloro-2-fluorophenyl)-2-methyl-7-((2S)-2-(2-methyl-4-pyridinyl)-4-morpholinyl)pyrido[3,4-b]pyrazine]	≤ 50	+++ (Emax>150 and ≤250)
Cc1nc2cc(N3CCO[C@@H](c4cnn(C)c4)C3)cc(-c3ccc(F)cc3F)c2nc1C [Example 164, 5-(2,4-difluorophenyl)-2,3-dimethyl-7-((2S)-2-(1-methyl-1H-pyrazol-4-yl)-4-morpholinyl) quinoxaline]	≤ 50	++++ (Emax>250)
Cc1nc2cc(N3CCO[C@@H](c4cnn(C)c4)C3)nc(-c3ccc(Cl)cc3F)c2nc1C [Example 79, 5-(4-chloro-2-fluorophenyl)-2,3-dimethyl-7-((2S)-2-(1-methyl-1H-pyrazol-4-yl)-4-morpholinyl)pyrido[3,4-b]pyrazine]	≤ 50	++++ (Emax>250)
Cc1nc2nc([C@H]3CCO[C@H](c4cnn(C)c4)C3)cc(-c3ccc(F)cc3F)c2nc1C [Example 265, 8-(2,4-difluorophenyl)-2,3-dimethyl-6-((2S,4S)-2-(1-methyl-1H-pyrazol-4-yl)tetrahydro-2H-pyran-4-yl)pyrido[2,3-b]pyrazine]	500 to 3000	+++ (Emax>150 and ≤250)
Cc1nc2nc([C@H]3CCO[C@@H](c4cnn(C)c4)C3)cc(-c3ccc(F)cc3F)c2nc1C (single isomer, unassigned) [Example 188]	≤ 50	+++ (Emax>150 and ≤250)
Cc1ccc2c(n1)nc(N1CCO[C@@H](c3cnn(C4CC4)c3)C1)nc2[C@H]1CC[C@H](C(F)(F)F)CC1 [Example 145, 2-((2S)-2-(1-cyclopropyl-1H-pyrazol-4-yl)-4-morpholinyl)-7-methyl-4-(trans-4-(trifluoromethyl)cyclohexyl)pyrido [2,3-d]pyrimidine]	≤ 50	+ (Emax>45 and ≤100)
Cc1cc2c(OC[C@H]3C[C@@H](C(F)(F)F)C3)nc(N3CCO[C@@H](c4cnn(C)c4)C3)nc2nc1C [Example 109, 6,7-dimethyl-2-((2S)-2-(1-methyl-1H-pyrazol-4-yl)-4-morpholinyl)-4-((cis-3-(trifluoromethyl)cyclobutyl)methoxy)pyrido[2,3-d]pyrimidine]	3000 to 100000	–
Cc1ccc2c(-c3ccc(Cl)cc3F)nc(N3CCO[C@@H](c4cnn(C)c4)C3)nc2n1 [Example 84, 4-(4-chloro-2-fluorophenyl)-7-methyl-2-((2S)-2-(1-methyl-1H-pyrazol-4-yl)-4-morpholinyl)pyrido[2,3-d]pyrimidine]	≤ 50	+++ (Emax>150 and ≤250)
Cc1cnc2c(-c3ccc(F)cc3F)nc(N3CCO[C@@H](c4cnn(C5CC5)c4)C3)nc2n1 [Example 7, 2-((2S)-2-(1-cyclopropyl-1H-pyrazol-4-yl)-4-morpholinyl)-4-(2,4-difluorophenyl)-7-methylpteridine]	≤ 50	+++ (Emax>150 and ≤250)
Cc1nc2nc(N3CCO[C@@H](c4cnn(C)c4)C3)nc(-c3ccc(C(F)(F)F)nc3)c2nc1C [Example 19, 6,7-dimethyl-2-((2S)-2-(1-methyl-1H-pyrazol-4-yl)-4-morpholinyl)-4-(6-(trifluoromethyl)-3-pyridinyl)pteridine]	≤ 50	+++ (Emax>150 and ≤250)
Cc1nc2nc([C@@H]3CCO[C@H](c4cnn(C)c4)C3)nc(-c3ccc(Cl)cc3F)c2nc1C (single isomer, unassigned) [Example 177]	500 to 3000	+++ (Emax>150 and ≤250)
Cc1cc([C@@H]2C[C@@H](c3nc(-c4ccc(Cl)cc4F)c4nc(C)c(C)nc4n3)CCO2)ccn1 [Example 272, 4-(4-chloro-2-fluorophenyl)-6,7-dimethyl-2-((2S,4S)-2-(2-methylpyridin-4-yl)tetrahydro-2H-pyran-4-yl)pteridine]	≤ 50	++++ (Emax>250)
Cc1nc2nc(C3CCO[C@H](c4cnn(C)c4)C3)nc(-c3ccc(Cl)cc3F)c2nc1C (stereo in doubt) [Example 276, 4-(4-chloro-2-fluorophenyl)-6,7-dimethyl-2-((2S,4R)-2-(1-methyl-1H-pyrazol-4-yl)tetrahydro-2H-pyran-4-yl)pteridine]	50 to 500	++++ (Emax>250)
Cc1nc2nc(N3CCO[C@@H](c4cnn(C)c4)C3)nc(N3CCCC(F)(F)C3)c2nc1C [Example 68, 4-(3,3-difluoro-1-piperidinyl)-6,7-dimethyl-2-((2S)-2-(1-methyl-1H-pyrazol-4-yl)-4-morpholinyl)pteridine]	3000 to 100000	–
Cc1nc2nc(N3CCO[C@@H](c4cnn(C5CC5)c4)C3)nc(-c3ccc(Cl)cc3F)c2nc1C [Example 22, 4-(4-chloro-2-fluorophenyl)-2-((2S)-2-(1-cyclopropyl-1H-pyrazol-4-yl)-4-morpholinyl)-6,7-dimethylpteridine]	≤ 50	++++ (Emax>250)
Cc1cc2c(-c3ccc(Cl)cc3F)nc(C3CCO[C@H](c4cnn(C)c4)C3)nc2nc1C (stereo in doubt) [Example 277, 4-(4-chloro-2-fluorophenyl)-6,7-dimethyl-2-((2S,4R)-2-(1-methyl-1H-pyrazol-4-yl)tetrahydro-2H-pyran-4-yl)pyrido[2,3-d]pyrimidine]	50 to 500	+++ (Emax>150 and ≤250)
Cc1cc([C@H]2CN(c3nc(-c4ccc(Cl)cc4F)c4ncc(C)nc4n3)CCO2)ccn1 [Example 3, 4-(4-chloro-2-fluorophenyl)-7-methyl-2-((2S)-2-(2-methyl-4-pyridinyl)-4-morpholinyl)pteridine]	≤ 50	+++ (Emax>150 and ≤250)
Cc1nc2nc(N3CCO[C@@H](c4cnn(C)c4)C3)nc([C@H]3CC[C@H](C)CC3)c2nc1C [Example 136, 6,7-dimethyl-4-(trans-4-methylcyclohexyl)-2-((2S)-2-(1-methyl-1H-pyrazol-4-yl)-4-morpholinyl)pteridine]	≤ 50	+++ (Emax>150 and ≤250)
Cc1ncc([C@@H]2CN(c3nc(-c4ccc(Cl)cc4F)c4nc(C)c(C)nc4n3)CCO2)cn1 (single isomer, unassigned) [Example 25]	≤ 50	++++ (Emax>250)
Cc1ccc(-c2nc(N3CCO[C@@H](c4ccnc(C)c4)C3)nc3nc(C)ccc23)c(F)c1 [Example 96, 4-(2-fluoro-4-methylphenyl)-7-methyl-2-((2S)-2-(2-methyl-4-pyridinyl)-4-morpholinyl)pyrido[2,3-d]pyrimidine]	≤ 50	++++ (Emax>250)
Cc1nc2nc(N3CCO[C@H](c4cnn(C)c4)C3)nc(N3CCC[C@@H](F)C3)c2nc1C [Example 262, (R)-4-(4-((R)-3-fluoropiperidin-1-yl)-6,7-dimethylpteridin-2-yl)-2-(1-methyl-1H-pyrazol-4-yl)morpholine]	3000 to 100000	–
Cc1cc([C@H]2C[C@H](c3nc(-c4ccc(Cl)cc4F)c4nc(C)c(C)nc4n3)CCO2)ccn1 [Example 273, 4-(4-chloro-2-fluorophenyl)-6,7-dimethyl-2-((2R,4R)-2-(2-methylpyridin-4-yl)tetrahydro-2H-pyran-4-yl)pteridine]	≤ 50	+++ (Emax>150 and ≤250)
Cc1ccc2c(-c3ccc(F)cc3F)nc(N3CCO[C@@H](c4cnn(C5CC5)c4)C3)nc2n1 [Example 92, 2-((2S)-2-(1-cyclopropyl-1H-pyrazol-4-yl)-4-morpholinyl)-4-(2,4-difluorophenyl)-7-methylpyrido[2,3-d]pyrimidine]	≤ 50	+++ (Emax>150 and ≤250)
